Laboratory results taken from PMC10353390, “Biological and Structural Analyses of New Potent Allosteric Inhibitors of HIV-1 Integrase” (Antimicrobial Agents and Chemotherapy, 2023).
Like-named read-outs stand apart in the source and are kept apart here.

Experiments:
HXB2 HIV-1 strain = assay: Multiple-round infection assay in MT4 cells, HXB2; type: cell-based; details: Human immunodeficiency virus 1, HXB2; multiple-round infection, MT4 cells; mean ± SD, n > 5; read-out: EC50 HXB2
In short: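 Antiviral read-out was CellTiter-Glo luminescent viability of exponentially growing MT4 cells (10^6/mL). Cells were exposed to HIV-1 for 2 h at an MOI of 0.001 while compound was present at varying concentrations.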

[1] = system: lab-adapted and clinical HIV-1 isolates; assay: Infection assays in primary T CD4+ lymphocytes; type: cell-based; details: Human immunodeficiency virus 1, Lymphocyte
[2] = biological target: CCD of HIV-1 IN and IBD of LEDGF/p75 (Human immunodeficiency virus type 1 group M subtype B, UniProt P12497); assay: biochemical
NL4-3 HIV-1 strain = assay: Multiple-round infection assay in MT4 cells, NL4-3; type: cell-based; details: MT4 cells
[3] = system: HIV-1 strains resistant to INSTIs, NRTIs, NNRTIs or PIs; type: cell-based; details: PI-resistant virus
In short: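 Cell viability (CellTiter-Glo luminescence) served as read-out in MT4 cells at 10^6/mL, infected 2 h at MOI 0.001 in presence of graded compound concentrations. Viruses: resistance-mutation recombinants in NL4-3 backbone plus resistant clinical isolates.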

[4] = biological target: HIV-1 IN-LEDGF/p75 interaction (Human immunodeficiency virus type 1 group M subtype B, UniProt P12497); assay: biochemical
HIV-1 IN = biological target: T1, HIV-1 IN (Human immunodeficiency virus type 1 group M subtype B, UniProt P12497); assay: HTRF IN multimerization assay; type: biochemical; details: mean ± SD
T1 construct: made in house
Excerpt: A key property of INLAIs is the ability to promote HIV-1 IN homo-multimerization ([39][–][42]). […] The maximal signal (plateau) in our IN aggregation assay corresponds to the highest HTRF signal increase under saturating INLAI concentration, relative to baseline level. Thus, MUT916, MUT884, MUT871, and MUT872 increased HIV-1 IN aggregation 3.7 to 4.4-fold, while BDM-2, BI-224436, and S-I-82 did so 5 to 6-fold (Table 1).

[5] = system: NL4-3 HIV-1 with INLAI-selected IN single point mutations; type: cell-based
[6] = system: recombinant NL4-3 viruses with polymorphisms at IN positions 124 and 125; assay: Multiple-round infection of MT4 cells with recombinant NL4-3 viruses polymorphic at IN positions 124 and 125; type: cell-based, HIV-1
In short: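 EC50 fold change relative to wild-type TT NL4-3 was derived from CellTiter-Glo viability of exponentially growing MT4 cells (10^6/mL). Cells were exposed for 2 h, with compounds, to NL4-3 clones bearing one of 15 IN 124/125 variants at MOI 0.001.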

[7] = system: VSV-G-pseudotyped NL4-3Δenv-luc; assay: microbe, parasite or virus in culture; type: cell-based, HIV-1; details: Human immunodeficiency virus 1, NL43, MT4, read-out: EC50 in single-round infection
[8] = system: primary HIV-1 isolates with polymorphisms at IN positions 124 and 125; assay: Multiple-round infection of MT4 cells with primary HIV-1 isolates polymorphic at IN positions 124 and 125; type: cell-based; details: primary isolate
In short: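 Antiviral potency read as protection of cell viability (CellTiter-Glo luminescence). Infection at MOI 0.001 lasted 2 h with compound present at a range of concentrations, using MT4 cells at 10^6/mL in exponential growth.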

[9] = Cytotoxicity assay in MT4 cells; type: cell-based; details: human, MT4 cells (proliferating human T-cell line), CellTiter-Glo
Excerpt: Growth inhibition was monitored in a proliferating human T-cell line (MT4) with different concentrations of compounds, using the CellTiter-Glo luminescent reagent (Promega), as previously described ([12]).

Cc1cc(NS(=O)(=O)CC2CCCCC2)c(C)c(C(OC(C)(C)C)C(=O)O)c1-c1ccc2c(c1)CCCO2 (stereo not shown) [S-I-82, reference compound]
EC50 (HXB2 HIV-1 strain): 0.0041 ± 0.0007 µM | EC50 ([1]; read-out: EC50 33913N (B)): 0.0044 ± 0.0019 µM | EC50 ([1]; read-out: EC50 HXB2 (B)): 0.0052 ± 0.0039 µM | EC50 ([1]; read-out: EC50 KER2008 (A)): 0.011 ± 0.002 µM | EC50 ([1]; read-out: EC50 NL4-3 (B)): 0.0099 ± 0.0011 µM | EC50 ([1]; read-out: EC50 NP1525 (CRF01_AE)): 0.01 ± 0.004 µM | EC50 ([1]; read-out: EC50 NP1538 (B)): 0.0086 ± 0.0005 µM | IC50 [2]: 0.43 ± 0.13 µM | EC90 (NL4-3 HIV-1 strain; Human immunodeficiency virus 1, NL43, multiple-round infection, from dose response curves, read-out: EC90 NL4-3): 0.021 ± 0.0072 µM | EC50 (NL4-3 HIV-1 strain; Human immunodeficiency virus 1, NL43, multiple-round infection, mean ± SD, n > 5, read-out: EC50 NL4-3): 0.012 ± 0.003 µM | Selectivity index CC50/EC50 NL4-3 (NL4-3 HIV-1 strain): 2,333 | Fold change in EC50 relative to NL4-3, ARP-4595 [3]: 1 | Fold change in EC50 relative to NL4-3, ARP-4596 [3]: 0.5 | Fold change in EC50 relative to NL4-3, ARP-11801 [3]: 1 | Fold change in EC50 relative to NL4-3, ARP-11803 [3]: 1 | Fold change in EC50 relative to NL4-3, ARP-11807 [3]: 1 | Fold change in EC50 relative to NL4-3, ARP-11808 [3]: 1 | IC50 [4]: 0.82 ± 0.38 µM | AC50 (HIV-1 IN; concentration for 50% maximum activation of multimerization): 0.047 ± 0.031 µM | IN multimerization Plateau (HIV-1 IN; maximum multimerization reached versus baseline): 500 ± 43% | EC50 fold change compared to wild type NL4-3, A128T [5]: 4 | EC50 fold change compared to wild type NL4-3, H171Q [5]: 2 | EC50 fold change compared to wild type NL4-3, N222K [5]: 1 | EC50 fold change compared to wild type NL4-3, T174I [5]: 15 | EC50 fold change compared to wild type NL4-3, Y99H [5]: 2 | Fold change in EC50 relative to parental NL4-3, AA ([6]; recombinant NL4-3, IN 124/125 AA): 1 | Fold change in EC50 relative to parental NL4-3, AM ([6]; recombinant NL4-3, IN 124/125 AM): 1 | Fold change in EC50 relative to parental NL4-3, AT ([6]; recombinant NL4-3, IN 124/125 AT): 1 | Fold change in EC50 relative to parental NL4-3, AV ([6]; recombinant NL4-3, IN 124/125 AV): 2 | Fold change in EC50 relative to parental NL4-3, GA ([6]; recombinant NL4-3, IN 124/125 GA): 3 | Fold change in EC50 relative to parental NL4-3, GT ([6]; recombinant NL4-3, IN 124/125 GT): 3 | Fold change in EC50 relative to parental NL4-3, NA ([6]; recombinant NL4-3, IN 124/125 NA): 10 | Fold change in EC50 relative to parental NL4-3, NT ([6]; recombinant NL4-3, IN 124/125 NT): 5 | Fold change in EC50 relative to parental NL4-3, NV ([6]; recombinant NL4-3, IN 124/125 NV): 5 | Fold change in EC50 relative to parental NL4-3, SA ([6]; recombinant NL4-3, IN 124/125 SA): 4 | Fold change in EC50 relative to parental NL4-3, ST ([6]; recombinant NL4-3, IN 124/125 ST): 2 | Fold change in EC50 relative to parental NL4-3, TA ([6]; recombinant NL4-3, IN 124/125 TA): 2 | Fold change in EC50 relative to parental NL4-3, TM ([6]; recombinant NL4-3, IN 124/125 TM): 1 | Fold change in EC50 relative to parental NL4-3, TV ([6]; recombinant NL4-3, IN 124/125 TV): 1 | EC50 [7]: 9.2 ± 1.1 µM | Fold change in EC50 relative to parental NL4-3, CAM2BBY (CRF02) ([8]; IN 124/125 AA): 2 | Fold change in EC50 relative to parental NL4-3, E0836M4 (D) ([8]; IN 124/125 AA): 1 | Fold change in EC50 relative to parental NL4-3, KER2008 (A) ([8]; IN 124/125 AA): 1 | Fold change in EC50 relative to parental NL4-3, NP1525 (CRF01) ([8]; IN 124/125 AA): 2 | Fold change in EC50 relative to parental NL4-3, NP1695 (CRF02) ([8]; IN 124/125 AA): 1 | Fold change in EC50 relative to parental NL4-3, TZA125 (C) ([8]; IN 124/125 AA): 1 | Fold change in EC50 relative to parental NL4-3, KSM4030 (A) ([8]; IN 124/125 GA): 6 | Fold change in EC50 relative to parental NL4-3, vGA (C) ([8]; IN 124/125 GA): 4 | Fold change in EC50 relative to parental NL4-3, 99ET14 (C) ([8]; IN 124/125 NA): 210 | Fold change in EC50 relative to parental NL4-3, NP1538 (B) ([8]; IN 124/125 NA): 1 | Fold change in EC50 relative to parental NL4-3, vNA_1 (B) ([8]; IN 124/125 NA): 23 | Fold change in EC50 relative to parental NL4-3, vNA_2 (CRF02) ([8]; IN 124/125 NA): 23 | Fold change in EC50 relative to parental NL4-3, vNV (B) ([8]; IN 124/125 NV): 34 | Fold change in EC50 relative to parental NL4-3, vSA_1 (B) ([8]; IN 124/125 SA): 12 | Fold change in EC50 relative to parental NL4-3, vSA_2 (CRF02) ([8]; IN 124/125 SA): 4 | Fold change in EC50 relative to parental NL4-3, vTA_1 (B) ([8]; IN 124/125 TA): 3 | Fold change in EC50 relative to parental NL4-3, vTA_2 (CRF02) ([8]; IN 124/125 TA): 3 | CC50 [9]: 28 ± 3 µM
